From patent US20240360100A1, “HETEROCYCLIC COMPOUNDS AS SEROTONIN (5-HT) 5-HT2A AND 5-HT2C RECEPTOR POSITIVE ALLOSTERIC MODULATORS” (The Board of Regents of The University of Texas System, priority 2021, published 2024)

How the values were obtained:
[1] = Solubility of representative compounds (Table 1); format: physicochemical; conditions: solvents listed
5-HT2CR = biological target: T1, 5-HT2CR (Homo sapiens, UniProt P28335); test: 5-HT-evoked Cai2+ release in vitro; format: cell-based
T1 construct: expressed in transfected cells
T1 sequence (P28335 33-458): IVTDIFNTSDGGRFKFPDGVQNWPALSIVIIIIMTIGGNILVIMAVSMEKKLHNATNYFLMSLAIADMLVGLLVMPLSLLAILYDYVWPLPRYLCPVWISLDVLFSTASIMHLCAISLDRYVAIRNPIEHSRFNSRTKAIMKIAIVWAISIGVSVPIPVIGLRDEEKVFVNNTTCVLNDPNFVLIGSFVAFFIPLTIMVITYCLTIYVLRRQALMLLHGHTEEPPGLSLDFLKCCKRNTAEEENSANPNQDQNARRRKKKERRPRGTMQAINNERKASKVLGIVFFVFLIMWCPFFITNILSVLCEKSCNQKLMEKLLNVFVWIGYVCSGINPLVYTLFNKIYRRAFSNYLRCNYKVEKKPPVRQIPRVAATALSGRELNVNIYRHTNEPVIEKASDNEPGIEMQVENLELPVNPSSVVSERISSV
Excerpt: General Method for In Vitro Pharmacological Assessment of Compounds of the Invention. The Chinese hamster ovary (CHO) cell lines stably transfected with human unedited (INI) h5-HT2CR (h5-HT2CR—CHO cells) or the human h5-HT2AR (h5-HT2AR—CHO cells) were a generous gift of K. Berg and W. Clarke (University of Texas Health Science Center, San Antonio, TX) (Berg et al., Molecular Pharmacology, 46:477-484, 1994; Ding et al., ACS Chemical Neuroscience, 3:538-545, 2012). […] Changes in Cai^2+ levels were determined using the calcium sensitive dye Calcium 4 or Calcium 6 (FLIPR No-wash kit, Molecular Devices, Sunnyvale, CA). […] The fluorescence readings were then adopted to evaluate the allosteric modulation of 5-HT-induced Cai^2+ release. FlexStation 3 or FLIPR^TETRA was used to measure fluorescence. For FlexStation 3, a 17 s baseline was established before the compound was added, and fluorescence was recorded every 1.7 s thereafter for 240 s. The maximum peak height of each well was determined by SoftMax software (Pro 5.4.5). For FLIPR^TETRA, a 10 s baseline was established before adding the compound, and then record the fluorescence every 1 s for 120 s after the compound or 360 s after 5-HT. The maximum peak height of each well was determined by ScreenWorks 4.0 software. After the final reading, the cells were fixed in 2% paraformaldehyde (Sigma) overnight. […]

Molecule | Solubility [1] | agonist-like properties (5-HT2CR; highest concentration tested in vitro (10 μM)) | 5-HT-evoked Cai2+ release (5-HT2CR; profile of a 5-HT2CR PAM)
4-phenethyl-N-(2-(piperazin-1-yl)ethyl)piperidine-2-carboxamide [AB0131] | EtOH, DMSO |  | 
CCCCCCCCCCC[C@@H]1CCN[C@H](C(=O)N[C@@H]([C@H]2O[C@H](SC)[C@H](O)[C@@H](O)[C@H]2O)[C@H](C)Cl)C1.Cl [PNU-69176E] |  | agonist-like properties observed | potentiated
N,N-bis(2-hydroxyethyl)-4-phenethylpiperidine-2-carboxamide [AB0128] | EtOH, DMSO |  | 
N-(2-(1,1-dioxidothiomorpholino)ethyl)-4-phenethylpiperidine-2-carboxamide [AB0132] | EtOH, DMSO |  | 
N-(2-(2-hydroxyethoxy)ethyl)-4-phenethylpiperidine-2-carboxamide [AB0136] | EtOH, DMSO |  | 
N-(2-(4-methylpiperazin-1-yl)ethyl)-4-phenethylpiperidine-2-carboxamide [AB0146] | EtOH, DMSO |  | 
N-(2-(dimethylamino)ethyl)-4-phenethylpiperidine-2-carboxamide [AB0124] | EtOH, DMSO |  | 
N-(2-hydroxyethyl)-4-phenethylpiperidine-2-carboxamide [AB0123] | EtOH, DMSO |  | 
N-(2-hydroxyethyl)-N-methyl-4-phenethylpiperidine-2-carboxamide [AB0127] | EtOH, DMSO |  | 
N-(2-methoxyethyl)-4-phenethylpiperidine-2-carboxamide [AB0122] | EtOH, DMSO |  | 
N-(3-morpholinopropyl)-4-phenethylpiperidine-2-carboxamide [AB0145] | EtOH, DMSO |  | 
N-((1S,2S)-1,3-dihydroxy-1-(4-(methylthio)phenyl)propan-2-yl)-4-phenethylpiperidine-2-carboxamide [AB0135] | EtOH, DMSO |  | 
N-((2R,3R)-1,3-dihydroxybutan-2-yl)-4-phenethylpiperidine-2-carboxamide [AB0126] | EtOH, DMSO |  | 
N-((2S,3S)-1,3-dihydroxybutan-2-yl)-4-phenethylpiperidine-2-carboxamide [AB0125] | EtOH, DMSO |  | 
N-(azetidin-3-yl)-4-phenethylpiperidine-2-carboxamide [AB0121] | EtOH, DMSO |  | 
